Source: PubChem BioAssay AID1949 (Southern Research Institute, 2009)
In brackets after ≈: the same amount, converted by molar mass. Results filed as inconclusive are left out. Activity calls are given as the source filed them. No rule for the calls is given here.

These compounds were tested on M. tuberculosis H37Rv growth inhibition (assay: Confirmatory growth inhibition assay against Mycobacterium tuberculosis H37Rv, potency (AID 1949);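 also: bacteria grown 7 days with compound before Alamar blue readout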).
`O=C(Nc1ccc(N2CCN(Cc3ccccc3F)CC2)cc1)c1ccc([N+](=O)[O-])o1` gave an IC50 of 0.28 µg/mL (≈ 0.66 µM). For `CCOC(=O)c1ccc(NC(=O)c2ccc(C)s2)cc1`, the IC50 was 2.22 µg/mL (≈ 7.67 µM). For `Cc1nc(SCC(=O)N2CCC(C)CC2)c2c3c(sc2n1)CCC3`, the IC50 was > 50 µg/mL (inactive). For `O=[N+]([O-])c1nn(-c2ccccc2)n(O)c1=NC1CCCC1`, the IC50 was 39.3 µg/mL (≈ 136 µM). With `O=C(C1CCCN1S(=O)(=O)c1ccc(Cl)cc1)N1CCOCC1` (stereo not drawn) the IC50 was 20 µg/mL (≈ 55.7 µM). With `Cc1ccc(C2CC(c3cc(Br)ccc3O)=NN2)cc1` (stereo not drawn) the IC50 was 3.46 µg/mL (≈ 10.4 µM). Compound `Cc1ccc(NCCC(=O)c2ccc([N+](=O)[O-])cc2)cc1C` has an IC50 of 1.06 µg/mL (≈ 3.55 µM). With `COc1ccc(Nc2sc(C(=O)C34CC5CC(CC(C5)C3)C4)c(N)c2C#N)cc1` the IC50 was 12.1 µg/mL (≈ 29.6 µM). `COc1ccccc1OC(=O)c1sc2ccccc2c1Cl` gave an IC50 of 1.37 µg/mL (≈ 4.3 µM). `CCC(C)NCCCOc1ccc(Cl)c2ccccc12` (stereo not drawn) was tested, and the IC50 was 2.06 µg/mL (≈ 7.06 µM). Work on `Fc1ccccc1-c1nc(-c2cnc3ccccc3c2)c(-c2cccs2)[nH]1` yielded an IC50 of 5.05 µg/mL (≈ 13.6 µM). In the case of `Cc1cc(OCCOCCn2ccnc2)cc(C(C)C)c1`, the IC50 was > 50 µg/mL (inactive). For `Cc1cc(C)nc(/N=C(\N)Nc2cc(Cl)ccc2Oc2ccccc2)n1`, the IC50 was 2.21 µg/mL (≈ 6.01 µM). For `Cc1ccc(NC(=O)COc2ccc(F)cc2)cc1`, the IC50 was > 50 µg/mL (inactive). `Cc1cc(C)c(OCCCCNCc2ccccc2)c(Cl)c1` was tested, and the IC50 was 5.18 µg/mL (≈ 16.3 µM). `CCc1ccc(O)c(NC(=S)NC(=O)c2cccc3ccccc23)c1` was tested, and the IC50 was 0.16 µg/mL (≈ 0.457 µM). `CCN(CC)CCn1nc2c3c(cccc3c1=O)-c1ccccc1-2` showed an IC50 of 5.48 µg/mL (≈ 17.2 µM). For `Cc1cccc(NC(=O)c2cc(-c3cccs3)nc3ccccc23)n1`, the IC50 was 1.82 µg/mL (≈ 5.27 µM). With `CCOC(=O)c1c(NC(=O)COc2ccccc2C)sc(C(=O)N2CCCC2)c1C` the IC50 was > 50 µg/mL (inactive). Compound `O=C1c2cccc3cccc(c23)C(=O)N1CCN1CCN(CC(O)COCc2ccc(Cl)cc2)CC1` (stereo not drawn) has an IC50 of 3.05 µg/mL (≈ 6 µM). `S=C(NCc1ccc(Cl)cc1)NCc1ccc(-n2cccn2)cc1` was tested, and the IC50 was 5.4 µg/mL (≈ 15.1 µM). For `Oc1cccc2ccc(/C=C/c3cccc(F)c3)nc12`, the IC50 was 0.13 µg/mL (≈ 0.49 µM). `O=[N+]([O-])c1ccc(N2CCN(CCO)CC2)cc1NCCOc1cccc2ccccc12` gave an IC50 of 2.82 µg/mL (≈ 6.46 µM). With `N#Cc1c(C(F)(F)F)cc(-c2cccnc2)nc1SCC(=O)N1CCc2ccccc2C1` the IC50 was > 50 µg/mL (inactive). For `Cc1ccc(NC(=O)c2cc([N+](=O)[O-])ccc2O)cc1`, the IC50 was 14.3 µg/mL (≈ 52.4 µM). `CCOC(=O)COc1ccc2cc(-c3nc4ccccc4o3)c(=O)oc2c1` was tested, and the IC50 was 3.3 µg/mL (≈ 9.03 µM). `CCn1c2ccccc2c2cc(CN3CCC(N4CCN(c5ccccc5OC)CC4)CC3)ccc21` gave an IC50 of 22.4 µg/mL (≈ 46.4 µM). For `Cc1nn2c3ccc(N)cc3nc2c2ccccc12`, the IC50 was 17.5 µg/mL (≈ 70.6 µM). `COc1cc([N+](=O)[O-])ccc1NC(=S)Nc1ccc(OC(F)F)c(Cl)c1` gave an IC50 of 3.41 µg/mL (≈ 8.44 µM). For `Oc1ccccc1-c1n[nH]c(/C=C/c2ccc(Cl)cc2)n1`, the IC50 was 2.73 µg/mL (≈ 9.17 µM). Compound `CN1CCN(c2cc(-c3ccccc3)nc3c(C(F)(F)F)cccc23)CC1` has an IC50 of 1.88 µg/mL (≈ 5.06 µM). For `O=C(Nc1cccc(Cl)c1)Nc1ccccc1OC(F)(F)C(F)F`, the IC50 was 0.19 µg/mL (≈ 0.524 µM). In the case of `O=C(Nc1cccc(I)c1)C(Cl)Cl`, the IC50 was 5.84 µg/mL (≈ 17.7 µM). Compound `CCc1nc2ccccc2n1CC(O)COc1ccc(I)cc1` (stereo not drawn) has an IC50 of 1.97 µg/mL (≈ 4.67 µM). `Oc1cccc(Nc2nc(NCc3ccccc3)c3ccccc3n2)c1` showed an IC50 of 0.98 µg/mL (≈ 2.86 µM). For `COC(=O)c1ccc(NC(=O)CSc2nnc(-c3ccc(Br)cc3)o2)cc1`, the IC50 was 5.83 µg/mL (≈ 13 µM). Work on `COc1ccc(NC(=S)NC(=O)CCc2ccccc2)cc1` yielded an IC50 of 1.92 µg/mL (≈ 6.11 µM). Compound `Cc1cc(C)cc(C(=O)Nc2ccc(N3CCN(C(=O)c4cccs4)CC3)c(Cl)c2)c1` has an IC50 of 15.5 µg/mL (≈ 34.2 µM). In the case of `CSc1nc2nc3c(c(=O)n2[nH]1)CCCC3`, the IC50 was 2.96 µg/mL (≈ 12.5 µM). `COc1cccc(CN2CCC(N(CCc3ccccc3)Cc3ccccc3)CC2)c1OC` was tested, and the IC50 was 6.32 µg/mL (≈ 14.2 µM). Work on `Cc1cc(Cl)ccc1NC(=O)CCc1ccc(S(=O)(=O)NC(C)C)cc1` yielded an IC50 of 2.93 µg/mL (≈ 7.42 µM). Compound `CCOc1ccc(S(=O)(=O)Nc2ccc(C(F)(F)F)cc2)cc1` has an IC50 of 6.25 µg/mL (≈ 18.1 µM). For `O=C(OCc1c(Cl)cccc1Cl)c1cc2ccccc2oc1=O`, the IC50 was > 50 µg/mL (inactive). With `COC(=O)COc1ccc(S(=O)(=O)Nc2cccc(Cl)c2C)cc1` the IC50 was 9.72 µg/mL (≈ 26.3 µM). `COc1ccc(Cc2nc3sc4c(c3c(=O)n2N)CCCC4)cc1` was tested, and the IC50 was > 50 µg/mL (inactive). `Oc1ccccc1-c1n[nH]c(/C=C/c2ccc(Br)cc2)n1` was tested, and the IC50 was 3.27 µg/mL (≈ 9.56 µM). In the case of `CCOC(=O)COc1ccc(S(=O)(=O)Nc2cccc(SC)c2)cc1`, the IC50 was 3.69 µg/mL (≈ 9.67 µM). In the case of `O=C(NC1CCCCC1)c1cc2cc(Cl)cc(Cl)c2oc1=O`, the IC50 was > 50 µg/mL (inactive). `CC(C)(C)c1ccc(OCCCNCc2ccccc2)cc1` showed an IC50 of 4.84 µg/mL (≈ 16.3 µM). `COc1cc(Br)cc2cc(C(=O)Nc3ccccc3C(F)(F)F)c(=O)oc12` was tested, and the IC50 was > 50 µg/mL (inactive). Work on `C=CCNCCCCOc1ccc(Cl)cc1C(C)(C)C` yielded an IC50 of 4.64 µg/mL (≈ 15.7 µM). With `CCc1c(C)sc(NC(=S)N2CCN(CC)CC2)c1C(=O)OC` the IC50 was 16.3 µg/mL (≈ 45.8 µM). Work on `CC(=O)c1c(C)n([O-])c2cc(Cl)c(Cl)cc2[n+]1=O` yielded an IC50 of 5.48 µg/mL (≈ 19.1 µM). `CSc1cccc(NC(=O)CSc2ccc(F)cc2)c1` showed an IC50 of 2.86 µg/mL (≈ 9.3 µM). Work on `CCOC(=O)N1CCN(CCC(=O)c2ccc(Cl)cc2)CC1` yielded an IC50 of 2.45 µg/mL (≈ 7.54 µM). For `CCCc1cc(C(=O)OC)c(NC(=O)c2cc3ccccc3oc2=O)s1`, the IC50 was 39.4 µg/mL (≈ 106 µM). `CCCNc1nc(Nc2ccc(C)cc2)nc(N2CCOCC2)n1` gave an IC50 of 7.71 µg/mL (≈ 23.5 µM). Work on `O=C(COc1ccc([N+](=O)[O-])cc1)Nc1ccccc1F` yielded an IC50 of 18.7 µg/mL (≈ 64.6 µM).
